In patent publication EP2226070B1, “Process for determining the optimal dosage of antivitamins K in anticoagulant therapy” (Puech, Roger, priority 2009, dated 2010):

System: INR
Assay: Correlation of optimal dosages between different vitamin K antagonists, established with the dosage determination process
Assay type: in vivo, patient
Settings: for dose correspondant à 1/4 de comprimé de "Préviscan" (corrélation proportionnelle entre différents antivitamines K): dose equivalent to 1/4 tablet of Préviscan for the optimal anticoagulant dosage
Text: Ce procédé de détermination est original en ce qu'il comprend les étapes suivantes consistant : • (a) à enregistrer la valeur IO de l'INR optimal cible, • (b) à enregistrer les valeurs d'INR mesurées dans une période donnée T1 à partir d'un surdosage Dmaxi dudit antivitamine K fixé préalablement par le prescripteur au-dessus du dosage préconisé, afin de déterminer une première pente P1 des valeurs d'INR en fonction du temps T1, • (c) à partir de la pente P1, à extrapoler et à enregistrer une valeur Imaxi d'INR théoriquement atteinte à partir du jour où la valeur IO de l'INR cible est atteinte et au bout d'une période déterminée T0, • (d) à enregistrer les valeurs d'INR mesurées dans une période donnée T2 à partir d'un sous-dosage Dmini dudit antivitamine K fixé par le prescripteur au-dessous du dosage préconisé, afin de déterminer une deuxième pente P2 des valeurs d'INR en fonction du temps T2, • (e) à partir de la pente P2, à extrapoler et à enregistrer une valeur Imini d'INR théoriquement atteinte à partir du jour où la valeur IO de l'INR cible est atteinte et au bout de la même période déterminée T0, • (f) à calculer à partir de la différence entre les valeurs Imaxi et Imini d'INR théoriquement calculées, un facteur de correction de posologie dudit antivitamine K exprimé selon la formule suivante : F = (Imaxi -Imini)/(Dmaxi -Dmini) [formula] • (g) afin de déterminer à partir de la différence entre les valeurs I0 de l'INR cible optimal et de l'Imini de l'INR minimum calculé, et dudit facteur F de correction de posologie dudit antivitamine K, la posologie adéquate D0 permettant d'atteindre et de maintenir constante la valeur Io de l'INR cible fixée préalablement selon la relation suivante : D0 = Dmini + (I0 -Imini)/(F). [formula]
C'est aussi à partir de son procédé de détermination de dosage optimal d'un antivitamine K, que le demandeur a pu établir également une corrélation proportionnelle entre différents antivitamines K (1/4 de comprimé de "Préviscan" correspond à 0,82 mg de "Sintrom", à 2 mg de "Coumadine" ou à 0,82 mg de "Apegmone") de sorte qu'à partir d'un dosage optimal d'un antivitamine K prescrit, il peut calculer le dosage optimal d'un autre antivitamine K en remplacement du premier.

| Structure (SMILES) | dose de référence de la corrélation proportionnelle entre différents antivitamines K (reference dose of the proportional correlation) | dose correspondant à 1/4 de comprimé de "Préviscan" (corrélation proportionnelle entre différents antivitamines K) |
| --- | --- | --- |
| O=C1c2ccccc2C(=O)C1c1ccc(F)cc1 [Préviscan] | 1/4 |  |
| CC(=O)CC(c1ccccc1)c1c(O)c2ccccc2oc1=O (stereo not shown) [Coumadine] |  | 2 mg |
| CC(=O)CC(c1ccc([N+](=O)[O-])cc1)c1c(O)c2ccccc2oc1=O (stereo not shown) [Sintrom] |  | 0,82 mg |
| O=c1oc2ccccc2c(O)c1C(CC(O)c1ccc(Cl)cc1)c1ccc(Cl)s1 (stereo not shown) [Apegmone] |  | 0,82 mg |
